Test results from patent US6852735B1, “Siastatin B derivatives having a glycosidase inhibitory activity and processes for producing the same” (Zaidan Hojin Biseibutsu Kagaku Kenkyu Kai, priority 1998, dated 2005).

Legend:
Format in all cases: biochemical
[1] = biological target: T1, α-N-acetylgalactosaminidase (from chicken liver) (Gallus gallus, UniProt Q90744); assay: α-N-acetylgalactosaminidase inhibition (Test Example 1); conditions: for IC50: α-N-acetylgalactosaminidase from chicken liver, substrate p-nitrophenyl-N-acetyl-α-D-galactosaminide, pH 4.0, 37° C., 30 minutes, read-out: 50% inhibiory concentration (IC50) Enzyme A (converted)
T1 construct: originated from chicken liver (a product of Sigma Company); purchased Sigma Company; host or cells: chicken liver
T1 sequence (Q90744 1-405): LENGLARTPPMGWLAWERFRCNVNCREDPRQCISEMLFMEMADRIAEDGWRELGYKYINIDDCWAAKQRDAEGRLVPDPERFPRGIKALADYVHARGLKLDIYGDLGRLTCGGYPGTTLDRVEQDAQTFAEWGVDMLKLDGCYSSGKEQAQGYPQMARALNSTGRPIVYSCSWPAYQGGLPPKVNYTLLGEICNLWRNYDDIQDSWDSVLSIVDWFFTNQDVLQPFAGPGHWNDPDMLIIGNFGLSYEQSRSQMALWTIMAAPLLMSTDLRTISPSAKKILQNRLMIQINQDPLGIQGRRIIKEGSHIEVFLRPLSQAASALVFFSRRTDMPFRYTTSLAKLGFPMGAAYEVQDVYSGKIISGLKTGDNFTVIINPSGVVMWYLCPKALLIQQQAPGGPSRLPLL
Procedure: This Test Example is a test example for determining the N-acetylgalactosaminidase-inhibitory activity of the compound of the formula (I), (V) or (X) according to this invention.
Assay of the N-acetylgalactosaminidase-inhibitory activity was conducted according to a modification of the method described in the “Journal of Biological Chemistry”, 252, pp.5194-5200(1977).
(§1) Thus, 0.5 mL of 0.025M citrate-phosphate buffer (pH 4.0), 0.1 mL of the same buffer containing 10 mM p-nitro-phenyl-N-acetyl-α-D-galactosaminide dissolved therein, and 0.1 mL of either water or an aqueous solution containing as the test compound any one of the compounds of the formulae (I), (V) and (X) according to this invention were mixed with each other and pre-incubated in a 96-wells titer plate at 37° C. for 10 minutes. After the completion of the pre-incubation, to the pre-incubated mixture was added 0.01 mL of 0.025 M citrate-phosphate buffer containing α-N-acetyl-galactosaminidase originated from chicken liver (a product of Sigma Company) which was dissolved in said buffer as a glycosidase to be tested. Thereafter, the enzymatic reaction was conducted at 37° C. for 30 minutes.
(§2) After the enzymatic reaction, to the reaction solution was added 1.0 mL of 0.3M glycine—sodium hydroxide buffer (pH 10.5), in order to terminate the enzymatic reaction. Thereafter, the absorbance [designated as value (a)] of light at 405 nm of the resulting reaction solution was measured. Concurrently, measurement was made of the absorbance [designated as value (b)] at 405 nm of the reaction solution as obtained in the control test where the enzymatic reaction was conducted without addition of the test compound. Further, measurements were made of the absorbance [designated as values (a′)] and the absorbance [[designated as values (b′)] at 405 nm of the solutions as obtained in the blank test and the control test, respectively, where the enzymatic reaction was not conducted in the assay test. The rate of inhibition to […] was calculated by the equation: [1-(a-a′)/(b-b′)]×100.
(§3) The test results obtained are summarized as IC50 value in Table 1 below.

[2] = tested on: α-D-galactosidase (from Aspergillus niger); assay: α-galactosidase inhibition (Test Example 3); conditions: for 50% inhibiory concentration (IC50) Enzyme C: α-D-galactosidase from Aspergillus niger, substrate p-nitrophenyl-α-D-galactoside
Procedure: as §1, §2, §3
This Test Example is a test example for determining the α-galactosidase or β-galactosidase-inhibitory activity of the compound of the formula (I), (V) or (X) according to this invention.
The evaluation of the α-galactosidase or β-galactosidase-inhibitory activity was conducted according to a modification of the method described in the “Journal of Biological Chemistry”, 240, p.2468 (1965).
Namely, the test was conducted in the same manner as the test for the enzyme-inhibitory activity described in Test Example 1, but with using α-galactosidase or β-galactosidase (products of by Sigma Company) originated from Aspergillus niger, as the glycosidase enzyme, and with using p-nitrophenyl-α-D-galactoside and p-nitrophenyl-β-D-galactoside as the substrate. Furthermore, absorbances of light at 405 nm were measured in the same manner as in Test Example 1. IC50 values of the test compound capable of giving the 50% inhibition to the enzymes were calculated.

[3] = tested on: β-D-mannosidase (from snail); assay: β-mannosidase inhibition (Test Example 5); conditions: for inhibition of β-D-mannosidase, in words: summary of Table 1; for 50% inhibiory concentration (IC50) Enzyme F: β-D-mannosidase from snail, substrate p-nitrophenyl-β-D-mannoside, sodium acetate buffer pH 4.5
Procedure: as §1, §2, §3
This Test Example is a test example for determining the α-mannosidase or β-mannosidase-inhibitory activity of the compounds according to this invention.
The evaluation of the β-mannosidase-inhibitory activity was conducted according to a modification of the method described in the “Journal of Biological Chemistry”, 242, p.5474 (1967).
Namely, the test was conducted in the same manner as the test for the enzyme-inhibitory activity test described in Test Example 1, but with using α-mannosidase from jack bean or β-mannosidase from snail (both enzymes are products of Sigma Company) as the glycosidase enzyme, with using 0.05 M sodium acetate—acetate buffer (pH 4.5) as the buffer, and with using p-nitrophenyl-α-D-mannoside or p-nitrophenyl-β-D-mannoside as the substrate. Furthermore, absorbances of light were measured in the same manner as in Test Example 1. IC50 values of the test compound capable of giving the 50% inhibition to the enzymes were calculated.

[4] = biological target: α-D-glucosidase (from yeast); assay: α-glucosidase inhibition (Test Example 4); conditions: for 50% inhibiory concentration (IC50) Enzyme H: α-D-glucosidase from yeast, substrate p-nitrophenyl-α-D-glucoside; for inhibition of α-D-glucosidase, in words: summary of Table 1
Procedure: as §1, §2, §3
This Test Example is a test example for determining the α-glucosidase or β-glucosidase-inhibitory activity of the compound of the formula (I), (V) or (X) according to this invention.
The evaluation of the β-glucosidase-inhibitory activity was conducted according to a modification of the method described in the “Agricultural and Biological Chemistry”, 26, p.203 (1962).
Namely, the test was conducted in the same manner as the test for the enzyme-inhibitory activity described in Test Example 1, but with using α-glucosidase originated from yeast or β-glucosidase originated from almond (both enzymes are products of Sigma Company) as the glycosidase enzyme, and with using p-nitro-phenyl-α-D-glucoside or p-nitrophenyl-β-D-glucoside as the substrate. Furthermore, absorbances of light were measured in the same manner as in Test Example 1, and IC50 values of the test compound capable of giving the 50% inhibition to the enzyme were calculated.

Structure (SMILES) | inhibition of N-acetyl-galactosaminidase, in words ([1]; summary of Table 1) | IC50 [1] | inhibition of α-D-galactosidase, in words ([2]; summary of Table 1) | 50% inhibiory concentration (IC50) Enzyme C [2] | inhibition of β-D-mannosidase, in words [3] | 50% inhibiory concentration (IC50) Enzyme F [3] | 50% inhibiory concentration (IC50) Enzyme H [4] | inhibition of α-D-glucosidase, in words [4]
O=C(N[C@H]1NC[C@H](CO)[C@H](O)[C@@H]1O)C(F)(F)F [Formula (I), 6-deacetamido-3-decarboxy-3-hydroxymethyl-6-trifluoroacetamido-siastain B] | inhibit strongly | 2.52 µM | inhibit strongly | 0.1 µg/mL | inhibit strongly | 38 µg/mL | >100 µg/mL | 
CC(=O)NC1NCC(CO)C(O)C1O (stereo not drawn) [Formula (V), 3-decarboxy-4-epi-3-hydroxymethyl-siastain B] |  | > 490 µM |  | >100 µg/mL | inhibit strongly | 10 µg/mL | 7 µg/mL | inhibit strongly
O=C(N[C@H]1NC[C@H](CO)[C@@H](O)[C@@H]1O)C(F)(F)F [Formula (X), 6-deacetamido-3-decarboxy-4-epi-3-hydroxymethyl-6-trifluoroacetamido-siastain B] |  | > 387 µM |  | >100 µg/mL | inhibit strongly | 1 µg/mL | 0.06 µg/mL | inhibit strongly
